Measurements published in ChEMBL document CHEMBL4665709, “Rational Avoidance of Protease Cleavage Sites and Symmetrical End-Tagging Significantly Enhances the Stability and Therapeutic Potential of Antimicrobial Peptides” (J Med Chem, 2020).
In brackets after ≈: the same amount, converted by molar mass. Where a SMILES comes first, the peptide text is derived from it.

What was measured:
[1] = Therapeutic index, ratio of MHC for human RBC to geometric mean of peptide MIC for Staphylococcus epidermidis ATCC 12228; assay type: toxicity; settings: human red blood cells (RBC), read-out: TI
[2] = Therapeutic index, ratio of MHC for human RBC to geometric mean of peptide MIC for Enterococcus faecalis ATCC 29212; assay type: toxicity; settings: human red blood cells (RBC), read-out: TI
Staphylococcus aureus [3] = test: Antibacterial activity against methicillin-resistant Staphylococcus aureus 43300 after 18 to 24 hrs by CLSI-based broth microdilution method; assay type: functional; settings: time hrs 18-24
Erythrocyte = test: Hemolytic activity in human RBC assessed as hemolysis; assay type: ADME, cell-based
[4] = Therapeutic index, ratio of MHC for human RBC to geometric mean of peptide MIC for Escherichia coli UB1005; assay type: toxicity; settings: human red blood cells (RBC), read-out: TI
[5] = Therapeutic index, ratio of MHC for human RBC to geometric mean of peptide MIC for Streptococcus agalactiae H92; assay type: toxicity; settings: human red blood cells (RBC), read-out: TI
[6] = Therapeutic index, ratio of MHC for human RBC to geometric mean of peptide MIC for methicillin-resistant Staphylococcus aureus 43300; assay type: toxicity; settings: human red blood cells (RBC), read-out: TI
Salmonella typhimurium [7] = test: Antibacterial activity against Salmonella typhimurium 7731 after 18 to 24 hrs by CLSI-based broth microdilution method; assay type: functional, Salmonella enterica subsp. enterica serovar Typhimurium; settings: Salmonella enterica, time hrs 18-24
Staphylococcus aureus [8] = test: Antibacterial activity against Staphylococcus aureus ATCC 29213 after 18 to 24 hrs by CLSI-based broth microdilution method; assay type: functional; settings: time hrs 18-24
Escherichia coli [9] = test: Antibacterial activity against Escherichia coli ATCC 25922 after 18 to 24 hrs by CLSI-based broth microdilution method; assay type: functional; settings: time hrs 18-24
Escherichia coli [10] = test: Antibacterial activity against Escherichia coli UB1005 after 18 to 24 hrs by CLSI-based broth microdilution method; assay type: functional; settings: time hrs 18-24
[11] = Cytotoxicity against HEK-293T cells assessed as cell viability at 128 uM by MTT assay relative to control; assay type: cell-based; settings: human, read-out: Activity
[12] = Therapeutic index, ratio of MHC for human RBC to geometric mean of peptide MIC for Salmonella typhimurium 7731; assay type: toxicity; settings: human red blood cells (RBC), read-out: TI
[13] = Therapeutic index, ratio of MHC for human RBC to geometric mean of peptide MIC for Salmonella pullorum 7913; assay type: toxicity; settings: human red blood cells (RBC), read-out: TI
Streptococcus agalactiae = test: Antibacterial activity against Streptococcus agalactiae H92 after 18 to 24 hrs by CLSI-based broth microdilution method; assay type: functional; settings: time hrs 18-24
Salmonella typhimurium [14] = test: Antibacterial activity against Salmonella typhimurium 14028 after 18 to 24 hrs by CLSI-based broth microdilution method; assay type: functional, Salmonella enterica subsp. enterica serovar Typhimurium; settings: Salmonella enterica, time hrs 18-24
[15] = Therapeutic index, ratio of MHC for human RBC to geometric mean of peptide MIC for Staphylococcus aureus 11011; assay type: toxicity; settings: human red blood cells (RBC), read-out: TI
[16] = Therapeutic index, ratio of MHC for human RBC to geometric mean of peptide MIC for Staphylococcus aureus ATCC 29213; assay type: toxicity; settings: human red blood cells (RBC), read-out: TI
[17] = Therapeutic index, ratio of MHC for human RBC to geometric mean of peptide MIC for Salmonella choleraesuis 503; assay type: toxicity; settings: human red blood cells (RBC), read-out: TI
[18] = Therapeutic index, ratio of MHC for human RBC to geometric mean of peptide MIC for Salmonella typhimurium 14028; assay type: toxicity; settings: human red blood cells (RBC), read-out: TI
[19] = Cytotoxicity against mouse RAW264.7 cells assessed as cell viability at 128 uM by MTT assay relative to control; assay type: cell-based; settings: read-out: Activity
Staphylococcus aureus [20] = test: Antibacterial activity against Staphylococcus aureus 11011 after 18 to 24 hrs by CLSI-based broth microdilution method; assay type: functional; settings: time hrs 18-24
Enterococcus faecalis = test: Antibacterial activity against Enterococcus faecalis ATCC 29212 after 18 to 24 hrs by CLSI-based broth microdilution method; assay type: functional; settings: time hrs 18-24
[21] = tested on: Staphylococcus epidermidis; test: Antibacterial activity against Staphylococcus epidermidis ATCC 12228 after 18 to 24 hrs by CLSI-based broth microdilution method; assay type: functional; settings: time hrs 18-24
[22] = Antibacterial activity against Salmonella pullorum 7913 after 18 to 24 hrs by CLSI-based broth microdilution method; assay type: functional, Salmonella enterica subsp. enterica serovar Pullorum; settings: Salmonella enterica, time hrs 18-24
[23] = Hemolytic activity in human RBC assessed as hemolysis at 1 to 128 uM relative to control; assay type: ADME, cell-based, Erythrocyte; settings: human red blood cells (RBC), dose 1-128 µM, read-out: Activity
Salmonella enterica = test: Antibacterial activity against Salmonella choleraesuis 503 after 18 to 24 hrs by CLSI-based broth microdilution method; assay type: functional; settings: time hrs 18-24
[24] = Therapeutic index, ratio of MHC for human RBC to geometric mean of peptide MIC for Escherichia coli ATCC 25922; assay type: toxicity; settings: human red blood cells (RBC), read-out: TI

SMILES	selectivity ratio [1]	selectivity ratio [2]	MIC (Staphylococcus aureus [3]) [µM]	MHC (Erythrocyte) [µM]	selectivity ratio [4]	selectivity ratio [5]	selectivity ratio [6]	MIC (Salmonella typhimurium [7]) [µM]	MIC (Staphylococcus aureus [8]) [µM]	MIC (Escherichia coli [9]) [µM]	MIC (Escherichia coli [10]) [µM]	viability at 128 µM [11] [%]	selectivity ratio [12]	selectivity ratio [13]	MIC (Streptococcus agalactiae) [µM]	MIC (Salmonella typhimurium [14]) [µM]	selectivity ratio [15]	selectivity ratio [16]	selectivity ratio [17]	selectivity ratio [18]	other results
CC(C)[C@H](N)C(=O)N[C@@H](CS)C(=O)N[C@@H](CCCNC(=N)N)C(=O)N[C@@H](CCCCN)C(=O)N1CCC[C@H]1C(=O)N[C@H](C(=O)N[C@H](C(=O)N[C@@H](CS)C(=O)N[C@@H](CCCNC(=N)N)C(=O)N[C@@H](CCCCN)C(=O)N1CCC[C@H]1C(=O)N[C@H](C(=O)N[C@H](C(=O)N[C@@H](CS)C(=O)N[C@@H](CCCNC(=N)N)C(=O)N[C@@H](CCCCN)C(=O)N1CCC[C@H]1C(=O)N[C@H](C(=O)N[C@H](C(=O)N[C@@H](CS)C(=O)N[C@@H](CCCNC(=N)N)C(=O)N[C@@H](CCCCN)C(=O)N1CCC[C@H]1C(=O)N[C@H](C(N)=O)C(C)C)C(C)C)C(C)C)C(C)C)C(C)C)C(C)C)C(C)C (H-VCRKPVVCRKPVVCRKPVVCRKPV-NH2)	2	2	> 64	> 128	8	2	2	8 (≈ 22 µg/mL)	> 64	8 (≈ 22 µg/mL)	8 (≈ 22 µg/mL)	> 90	8	8	> 64	8 (≈ 22 µg/mL)	2	2	8	8	viability at 128 µM [19]: > 90%; MIC (Staphylococcus aureus [20]): > 64 µM; MIC (Enterococcus faecalis): > 64 µM; MIC [21]: > 64 µM; MIC [22]: 64 µM (≈ 176 µg/mL); hemolysis at up to 128 µM [23]: < 5%; MIC (Salmonella enterica): > 64 µM; selectivity ratio [24]: 8
CC(C)[C@H](N)C(=O)N[C@@H](CS)C(=O)N[C@@H](CCCNC(=N)N)C(=O)N[C@@H](CCCCN)C(=O)N1CCC[C@H]1C(=O)N[C@H](C(=O)N[C@H](C(=O)N[C@@H](CS)C(=O)N[C@@H](CCCNC(=N)N)C(=O)N[C@@H](CCCCN)C(=O)N1CCC[C@H]1C(=O)N[C@H](C(=O)N[C@H](C(=O)N[C@@H](CS)C(=O)N[C@@H](CCCNC(=N)N)C(=O)N[C@@H](CCCCN)C(=O)N1CCC[C@H]1C(=O)N[C@H](C(=O)N[C@H](C(=O)N[C@@H](CS)C(=O)N[C@@H](CCCNC(=N)N)C(=O)N[C@@H](CCCCN)C(=O)N1CCC[C@H]1C(=O)N[C@H](C(=O)N[C@H](C(=O)N[C@@H](CS)C(=O)N[C@@H](CCCNC(=N)N)C(=O)N[C@@H](CCCCN)C(=O)N1CCC[C@H]1C(=O)N[C@H](C(N)=O)C(C)C)C(C)C)C(C)C)C(C)C)C(C)C)C(C)C)C(C)C)C(C)C)C(C)C (H-VCRKPVVCRKPVVCRKPVVCRKPVVCRKPV-NH2)	2	2	> 64	> 128	16	2	2	4 (≈ 13.7 µg/mL)	> 64	4 (≈ 13.7 µg/mL)	4 (≈ 13.7 µg/mL)	> 90	16	16	> 64	4 (≈ 13.7 µg/mL)	2	2	16	16	viability at 128 µM [19]: > 90%; MIC (Staphylococcus aureus [20]): > 64 µM; MIC (Enterococcus faecalis): > 64 µM; MIC [21]: > 64 µM; MIC [22]: 16 µM (≈ 54.9 µg/mL); hemolysis at up to 128 µM [23]: < 5%; MIC (Salmonella enterica): > 64 µM; selectivity ratio [24]: 16
CC[C@H](C)[C@H](N)C(=O)N[C@H](C(=O)N[C@H](C(=O)N[C@@H](CS)C(=O)N[C@@H](CCCNC(=N)N)C(=O)N[C@@H](CCCCN)C(=O)N1CCC[C@H]1C(=O)N[C@H](C(=O)N[C@H](C(=O)N[C@@H](CS)C(=O)N[C@@H](CCCNC(=N)N)C(=O)N[C@@H](CCCCN)C(=O)N1CCC[C@H]1C(=O)N[C@H](C(=O)N[C@H](C(=O)N[C@@H](CS)C(=O)N[C@@H](CCCNC(=N)N)C(=O)N[C@@H](CCCCN)C(=O)N1CCC[C@H]1C(=O)N[C@H](C(=O)N[C@H](C(=O)N[C@@H](CS)C(=O)N[C@@H](CCCNC(=N)N)C(=O)N[C@@H](CCCCN)C(=O)N1CCC[C@H]1C(=O)N[C@H](C(=O)N[C@H](C(=O)N[C@@H](CS)C(=O)N[C@@H](CCCNC(=N)N)C(=O)N[C@@H](CCCCN)C(=O)N1CCC[C@H]1C(=O)N[C@H](C(=O)N[C@H](C(=O)N[C@H](C(N)=O)[C@@H](C)CC)[C@@H](C)CC)[C@@H](C)CC)[C@@H](C)CC)[C@@H](C)CC)[C@@H](C)CC)[C@@H](C)CC)[C@@H](C)CC)[C@@H](C)CC)[C@@H](C)CC)[C@@H](C)CC)[C@@H](C)CC)[C@@H](C)CC (H-IIICRKPIICRKPIICRKPIICRKPIICRKPIII-NH2)	2	2	> 64	> 128	32	2	2	4 (≈ 16.1 µg/mL)	> 64	4 (≈ 16.1 µg/mL)	2 (≈ 8.05 µg/mL)	> 90	32	32	> 64	4 (≈ 16.1 µg/mL)	2	2	32	32	viability at 128 µM [19]: > 90%; MIC (Staphylococcus aureus [20]): > 64 µM; MIC (Enterococcus faecalis): > 64 µM; MIC [21]: > 64 µM; MIC [22]: 8 µM (≈ 32.2 µg/mL); hemolysis at up to 128 µM [23]: < 5%; MIC (Salmonella enterica): 4 µM (≈ 16.1 µg/mL); selectivity ratio [24]: 32
CC[C@H](C)[C@H](N)C(=O)N[C@H](C(=O)N[C@H](C(=O)N[C@@H](CS)C(=O)N[C@@H](CCCNC(=N)N)C(=O)N[C@@H](CCCCN)C(=O)N1CCC[C@H]1C(=O)N[C@H](C(=O)N[C@H](C(=O)N[C@@H](CS)C(=O)N[C@@H](CCCNC(=N)N)C(=O)N[C@@H](CCCCN)C(=O)N1CCC[C@H]1C(=O)N[C@H](C(=O)N[C@H](C(=O)N[C@@H](CS)C(=O)N[C@@H](CCCNC(=N)N)C(=O)N[C@@H](CCCCN)C(=O)N1CCC[C@H]1C(=O)N[C@H](C(=O)N[C@H](C(=O)N[C@H](C(N)=O)[C@@H](C)CC)[C@@H](C)CC)[C@@H](C)CC)[C@@H](C)CC)[C@@H](C)CC)[C@@H](C)CC)[C@@H](C)CC)[C@@H](C)CC)[C@@H](C)CC (H-IIICRKPIICRKPIICRKPIII-NH2)	2.52	2.52	> 64	> 128	16	2.52	2.52	8 (≈ 20.8 µg/mL)	> 64	4 (≈ 10.4 µg/mL)	4 (≈ 10.4 µg/mL)	> 90	16	16	16 (≈ 41.6 µg/mL)	8 (≈ 20.8 µg/mL)	2.52	2.52	16	16	viability at 128 µM [19]: > 90%; MIC (Staphylococcus aureus [20]): > 64 µM; MIC (Enterococcus faecalis): > 64 µM; MIC [21]: > 64 µM; MIC [22]: 16 µM (≈ 41.6 µg/mL); hemolysis at up to 128 µM [23]: < 5%; MIC (Salmonella enterica): 16 µM (≈ 41.6 µg/mL); selectivity ratio [24]: 16
CC(C)[C@H](N)C(=O)N[C@@H](CS)C(=O)N[C@@H](CCCNC(=N)N)C(=O)N[C@@H](CCCCN)C(=O)N1CCC[C@H]1C(=O)N[C@H](C(=O)N[C@H](C(=O)N[C@@H](CS)C(=O)N[C@@H](CCCNC(=N)N)C(=O)N[C@@H](CCCCN)C(=O)N1CCC[C@H]1C(=O)N[C@H](C(N)=O)C(C)C)C(C)C)C(C)C (H-VCRKPVVCRKPV-NH2)	2	2	> 64	> 128	2	2	2	> 64	> 64	> 64	> 64	> 90	2	2	> 64	> 64	2	2	2	2	viability at 128 µM [19]: > 90%; MIC (Staphylococcus aureus [20]): > 64 µM; MIC (Enterococcus faecalis): > 64 µM; MIC [21]: > 64 µM; MIC [22]: > 64 µM; hemolysis at up to 128 µM [23]: < 5%; MIC (Salmonella enterica): > 64 µM; selectivity ratio [24]: 2
